This is an account of results in publication PMC9133036 (Nature Communications, 2022).

“And” between values parts separate entries of the source, which are not always exact repeats. Equal entries are not always repeated.

In general, EC50 refers to the concentration needed to bring the measured effect to its halfway point.

Common to all, as to assay type: cell-based
Assay [1] addresses T1, OX2R T111A (Homo sapiens, UniProt O43614, T111A).
T1 construct: FLAG; expressed in transfected cells; host or cells: HEK293
T1 sequence (O43614 1-444 T111A): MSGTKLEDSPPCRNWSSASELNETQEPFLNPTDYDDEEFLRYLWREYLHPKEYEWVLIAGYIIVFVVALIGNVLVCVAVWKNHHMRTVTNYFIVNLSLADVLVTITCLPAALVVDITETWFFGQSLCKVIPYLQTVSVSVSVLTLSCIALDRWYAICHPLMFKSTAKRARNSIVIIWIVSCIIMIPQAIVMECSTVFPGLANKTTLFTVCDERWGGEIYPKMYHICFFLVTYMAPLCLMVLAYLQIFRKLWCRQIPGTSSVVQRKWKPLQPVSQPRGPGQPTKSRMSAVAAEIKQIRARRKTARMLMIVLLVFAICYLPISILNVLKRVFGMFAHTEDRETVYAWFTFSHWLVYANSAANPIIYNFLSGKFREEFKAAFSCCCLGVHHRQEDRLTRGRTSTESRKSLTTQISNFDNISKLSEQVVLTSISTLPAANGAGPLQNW
The assay can be described thus: IP accumulation assay, OX2R T111A. To be noted: for % IP accumulation: listed as OXB. From the text: (§1) The IP assay was adapted from a prior precedent. HEK293 cells were maintained in DMEM-high glucose (Millipore Sigma) supplemented with 5% fetal bovine serum (Corning) and penicillin-streptomycin (Millipore Sigma). Receptor constructs used were the full-length wild-type (or mutant) human OX1R and OX2R sequences cloned into pCDNA3. To enhance the Emax in the IP assay, a plasmid encoding full-length human Gαq subunit[66] was co-transfected into HEK293 cells with plasmids encoding orexin receptor constructs using Lipofectamine 3000 (Thermo Fisher). 24 h after transfection, the cells were plated on poly-D-lysine coated (Millipore Sigma) tissue culture-treated 96 well white plates with clear bottoms (Perkin Elmer) at 30,000 cells per well in Inositol-free DMEM (MP Biomedicals) supplemented with 5% fetal bovine serum, 4 mM L-glutamine (Millipore Sigma), penicillin-streptomycin, and about 5 uCi (5 ul) per ml myo-[2-3H] inositol (Perkin Elmer). The following day, the media was replaced with agonists that were diluted in HBSS (Millipore Sigma) containing 10 mM lithium chloride (Millipore Sigma) and incubated at 37 °C for 45 min. Then agonists were removed and cells were lysed on ice for 30 min with 10 mM formic acid (Millipore Sigma). 1.25 mg of poly-lysine coated YSI SPA beads (Perkin Elmer) was added to each well. The plates were mixed on an orbital shaker for 30 min. The plates were read on a MicroBeta scintillation counter (Perkin Elmer) the following day. IP accumulation assays on different constructs were performed in n ≥ 3 independent experiments (each done in duplicate), where n is shown in Supplementary Table 2.

Assay [2] concerns the target T2, OX2R V114A (Homo sapiens, UniProt O43614, V114A).
T2 construct: expressed in transfected cells; host or cells: CHO-K1 stably expressing EA β-arrestin2
The assay can be described thus: β-arrestin PathHunter assay, OX2R V114A. Here is the method: β-Arrestin recruitment activity was measured by using the PathHunter system (DiscoveRX) according to the manufacturer’s instruction. Receptor constructs used were the full-length wild-type (or mutant) human OX2R sequences cloned into pCMV-ProLink (DiscoveRX). CHO-K1 cells stably expressing EA β-arrestin2 (DiscoveRX) were plated on 384 well white plates (Thermo Fisher) at 4000 cells/well in HamF12 (Wako Pure Chemical Industries) supplemented with 10% fetal bovine serum (Corning) and penicillin-streptomycin (Wako Pure Chemical Industries) and incubated overnight at 37 °C under 5% CO2. Cells were transfected with plasmids encoding wild type or each mutant ProLink-tagged human OX2R using FuGENE HD (Promega). […] Detection reagent was added and incubated for 1 h at room temperature. Luminescent signal was detected using an EnVision plate reader (PerkinElmer). β-arrestin assays on different constructs were performed in two or three independent experiments (each done in quadruplicate). Dose response curves (shown in Supplementary Fig. 8) were fitted to the three-parameter model ‘log(agonist) vs response’ in GraphPad Prism to determine pEC50 values.

The target of assay [3] is T3, OX2R1-406 (Homo sapiens, UniProt O43614).
T3 construct: the receptor construct contained residues 1–406 of wild-type human OX2R; expressed in transfected cells; host or cells: HEK293
T3 sequence (O43614 1-406): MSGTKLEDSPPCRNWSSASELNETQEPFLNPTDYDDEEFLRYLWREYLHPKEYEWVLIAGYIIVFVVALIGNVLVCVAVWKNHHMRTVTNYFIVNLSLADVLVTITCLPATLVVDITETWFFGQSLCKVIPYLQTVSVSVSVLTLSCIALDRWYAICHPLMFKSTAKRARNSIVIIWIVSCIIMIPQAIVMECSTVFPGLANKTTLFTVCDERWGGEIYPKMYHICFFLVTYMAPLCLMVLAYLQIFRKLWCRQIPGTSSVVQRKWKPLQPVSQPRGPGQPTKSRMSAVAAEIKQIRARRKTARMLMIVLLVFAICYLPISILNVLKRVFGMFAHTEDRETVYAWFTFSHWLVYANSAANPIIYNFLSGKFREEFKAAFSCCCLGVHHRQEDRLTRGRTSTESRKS
The assay can be described thus: IP accumulation assay, C-terminally truncated OX2R1-406.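 As to % IP accumulation: 100% is the full-length wild-type OX2R maximal IP response.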 To be noted: for % IP accumulation: OX2R C25 short; for Emax: relative to OX2R WT with the same ligand. The procedure: The cloning, expression, purification, cryo-EM data collection, and structure determination for the two OX2R-G protein complexes described in this paper were carried out independently. For the OX2R-mGsqiN complex the receptor construct contained residues 1–406 of wild-type human OX2R (OX2R^1–406). […] The resulting construct was cloned into a modified pFastBac (ThermoFisher) baculovirus expression vector with the HA signal sequence followed by a FLAG tag at the N-terminus. We were unable to isolate a stable complex between OX2R and full-length wild-type Gαq using the co-expression and purification strategy described below. Instead, an engineered Gαq construct called mGαsqiN was made by modifying the chimeric Gα protein ‘mini-Gs/q71’ previously described. Briefly, the linker […] was deleted and residues 1–27 at the N terminus was replaced by residues 1–30 of Gαi1. A second pFastBac baculovirus was made with this mini-GαqiN gene. An additional pFastBac-Dual baculovirus was made with human Gβ1 and human […] genes. An 8xHis tag was placed at the N-terminus of […]. […] After 48 h, cells were harvested and stored at −80 °C.
as §1

T2 sequence (O43614 whole entry V114A): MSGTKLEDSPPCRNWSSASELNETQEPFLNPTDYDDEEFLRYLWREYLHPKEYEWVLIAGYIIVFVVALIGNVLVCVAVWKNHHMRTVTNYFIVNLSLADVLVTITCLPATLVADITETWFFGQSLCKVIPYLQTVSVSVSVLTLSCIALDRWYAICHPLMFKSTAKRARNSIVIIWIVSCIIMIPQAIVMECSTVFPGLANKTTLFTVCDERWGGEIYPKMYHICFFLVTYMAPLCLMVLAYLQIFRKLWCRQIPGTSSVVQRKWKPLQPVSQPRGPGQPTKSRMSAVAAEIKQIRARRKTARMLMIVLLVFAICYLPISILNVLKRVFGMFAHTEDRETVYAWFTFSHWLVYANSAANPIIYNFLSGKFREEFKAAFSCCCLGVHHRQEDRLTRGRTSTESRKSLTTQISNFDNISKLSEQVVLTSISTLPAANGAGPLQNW

Consider `COC(=O)N1CCC[C@H](NS(C)(=O)=O)[C@@H]1CO[C@H]1CC[C@@H](c2ccccc2)CC1` [TAK-925, methyl (2R,3S)−3-[(methylsulfonyl)amino]−2-{[(cis−4-phenylcyclohexyl)oxy]methyl}piperidine-1-carboxylate], for which the EC50 in assay [1] (IP accumulation) is 2.1 µM; in assay [2] (β-arrestin recruitment), 2.2 µM; in assay [3] (IP accumulation), 0.0054 µM. Further, the Emax turned out to be 53 in assay [1] (relative to OX2R WT/TAK-925) and 100 in assay [3]. In addition, the “% IP accumulation” value was 102.09% and 80.64% and 87.71% and 69.65% and 70.45% and 93.38% in assay [3] (TAK-925 conc (log, M) -7.39); 87.29% and 59.28% and 70.66% and 54.93% and 62.49% and 77.19% in assay [3] (TAK-925 conc (log, M) -7.86).

For the compound orexin B, the “% IP accumulation” value is 23.30% and 22.94% and 22.04% in assay [1] (OXB conc (log, M) -6.95); 18.33% and 16.23% and 14.57% in assay [1] (OXB conc (log, M) -7.43); 15.27% and 13.44% and 11.80% in assay [1] (OXB conc (log, M) -7.91); 116.05% and 97.72% and 102.67% and 64.00% and 80.15% and 76.35% and 110.96% in assay [3] (OXB conc (log, M) -6.95, listed as OXB); 91.34% and 86.13% and 87.29% and 57.27% and 82.96% and 71.01% and 111.84% in assay [3] (OXB conc (log, M) -7.43, listed as OXB); 79.86% and 83.63% and 74.72% and 64.39% and 71.59% and 62.47% and 94.62% in assay [3] (OXB conc (log, M) -7.91, listed as OXB). In addition, the “% IP accumulation” value was 46.18% and 59.23% and 44.98% and 53.61% and 63.91% and 47.69% and 72.05% in assay [3] (OXB conc (log, M) -8.39, listed as OXB); 4.24% and 6.17% and 0.00% and 5.40% and 1.80% and 6.02% and 6.79% in assay [3] (OXB conc (log, M) -9.82, listed as OXB); 0.00% and 3.23% in assay [3] (OXB conc (log, M) -10.29, listed as OXB). In assay [2] (V114A, OxB concentration -8.00 (log, M), listed as OxB), the “beta-arrestin recruitment fold change” value is 1.594 fold and 2.704 fold and 1.365 fold and 1.888 fold. This compound returned an Emax in assay [3] of 100.
